Measurements taken from ChEMBL document CHEMBL6103592, “Discovery of novel thiazole-pleuromutilin derivatives with potent antibacterial activity” (Eur J Med Chem, 2025).
Converted amounts (≈) assume the structure as drawn. The source made the active and inactive calls. The calls are words filed in the database; no cut-off is given here.

Experiments:
[1] = Acute toxicity in rat assessed as body weight change at 2000 mg/kg, po measured at 24 hrs; type: organism-based; conditions: in vivo
[2] = Acute toxicity in rat assessed as relative kidney weight at 2000 mg/kg, po administered for 7 days followed by readministration after 7 days and measured at 14 days (reference value: 0.83 +/- 0.08%); type: organism-based; conditions: in vivo, 336 h, time 14 day
[3] = Acute toxicity in rat assessed as absolute lung weight at 2000 mg/kg, po measured for 7 days (reference value: 1.12 +/- 0.07g); type: organism-based; conditions: in vivo, 168 h, time 7 day
[4] = Acute toxicity in rat assessed as reduction in water consumption at 2000 mg/kg, po measured for 14 days; type: organism-based; conditions: in vivo, 336 h, time 14 day
[5] = Acute toxicity in po dosed rat assessed as lethal dose measured for 14 days […]; type: organism-based; conditions: in vivo, time 14 day
[6] = Acute toxicity in rat assessed as reduction in water consumption at 2000 mg/kg, po measured at 24 hrs; type: organism-based; conditions: in vivo
Staphylococcus aureus [7] = assay: (§1) Antibacterial efficacy against methicillin-resistant Staphylococcus aureus ATCC 43300 infected in cyclophosphamide-induced neutropenic systemic infection Kunming mouse model assessed as effect on survival rate at 20 mg/kg, iv pretreated with cyclophosphamide for 1 hr followed by compound addition and measured after 7 days; type: functional, organism-based; conditions: time 7.0 day
[8] = Acute toxicity in rat assessed as degeneration of endometrial epithelial cells at 2000 mg/kg, po measured for 14 days by H and E staining based analysis; type: organism-based; conditions: in vivo, 336 h, time 14 day
[9] = Acute toxicity in rat assessed as relative uterus weight at 2000 mg/kg, po administered for 7 days followed by readministration after 7 days and measured at 14 days (reference value: 0.27 +/- 0.09%); type: organism-based; conditions: in vivo, 336 h, time 14 day
[10] = Acute toxicity in rat assessed as absolute uterus weight at 2000 mg/kg, po administered for 7 days followed by readministration after 7 days and measured at 14 days (reference value: 0.52 +/- 0.18 g); type: organism-based; conditions: in vivo, 336 h, time 14 day
[11] = Acute toxicity in rat assessed as reduction in food intake at 2000 mg/kg, po measured at 24 hrs; type: organism-based; conditions: in vivo
HepG2 [12] = assay: Cytotoxicity against human HepG2 cells assessed as cell viability incubated for 24 hrs by CCK-8 assay; type: functional, cell-based; conditions: HepG2, 24 h
Staphylococcus aureus [13] = assay: Bactericidal activity against methicillin-resistant Staphylococcus aureus ATCC 43300 at 1 to 6 times MIC incubated upto 24 hrs by time-kill assay; type: functional, organism-based
Staphylococcus aureus [14] = assay: as §1, with “reduction in bacterial load in lung” for “effect on survival rate”, “5” for “7”; type: functional; conditions: time 5 day
Staphylococcus aureus [15] = assay: Bactericidal activity against methicillin-resistant Staphylococcus aureus ATCC 43300 assessed as increase in colony forming unit count at 1 times MIC incubated after 8 hrs by time-kill assay; type: functional, organism-based
[16] = Acute toxicity in rat assessed as pathological changes in heart at 2000 mg/kg, po measured for 14 days; type: organism-based; conditions: in vivo, 336 h, time 14 day
[17] = Acute toxicity in rat assessed as relative liver weight at 2000 mg/kg, po measured for 7 days (reference value: 4.36 +/- 0.23 %); type: organism-based; conditions: in vivo, 168 h, time 7 day
[18] = Cytotoxicity against human HEK293T cells assessed as cell viability at 200 micromol/L incubated for 24 hrs by CCK-8 assay relative to control; type: toxicity, cell-based, HEK-293T; conditions: dose 200 µmol/L, read-out: Activity
Staphylococcus aureus [19] = assay: as §1, with “reduction in bacterial load in kidney” for “effect on survival rate”, “5” for “7”; type: functional, organism-based; conditions: time 5.0 day
[20] = Acute toxicity in rat assessed as absolute heart weight at 2000 mg/kg, po administered for 7 days followed by readministration after 7 days and measured at 14 days (reference value: 0.77 +/- 0.12 g); type: organism-based; conditions: in vivo, 336 h, time 14 day
[21] = Acute toxicity in rat assessed as absolute lung weight at 2000 mg/kg, po administered for 7 days followed by readministration after 7 days and measured at 14 days (reference value: 1.12 +/- 0.07 g); type: organism-based; conditions: in vivo, 336 h, time 14 day
Staphylococcus aureus [22] = assay: Antibacterial activity against Staphylococcus aureus ATCC 25923 assessed as inhibition of visible bacterial growth incubated for 24 hrs by CLSI based broth microdilution method; type: functional
Mycoplasma = assay: Antibacterial activity against Mycoplasma F3 assessed as inhibition of visible bacterial growth incubated for 24 hrs by CLSI based broth microdilution method; type: functional
[23] = Acute toxicity in rat assessed as reduction in food intake at 2000 mg/kg, po measured for 14 days; type: organism-based; conditions: in vivo, 336 h, time 14 day
HepG2 [24] = assay: Cytotoxicity against human HepG2 cells assessed as cell viability at 200 micromol/L incubated for 24 hrs by CCK-8 assay relative to control; type: functional; conditions: HepG2, 24 h, dose 200 µmol/L, read-out: Activity
Staphylococcus aureus [25] = assay: Antibacterial activity against methicillin-resistant Staphylococcus aureus ATCC 43300 assessed as post antibiotic effect at 2 times MIC measured after 1 hr; type: functional
Staphylococcus aureus [26] = assay: Antibacterial activity against methicillin-resistant Staphylococcus aureus ATCC 43300 assessed as post antibiotic effect at 4 times MIC measured after 1 hr; type: functional
[27] = Acute toxicity in rat assessed as swelling in uterus at 2000 mg/kg, po measured for 14 days by H and E staining based analysis; type: organism-based; conditions: in vivo, 336 h, time 14 day
[28] = Acute toxicity in rat assessed as relative spleen weight at 2000 mg/kg, po administered for 7 days followed by readministration after 7 days and measured at 14 days (reference value: 0.27 +/- 0.02 %); type: organism-based; conditions: in vivo, 336 h, time 14 day
[29] = Acute toxicity in rat assessed as animal death at 2000 mg/kg, po measured for 14 days; type: organism-based; conditions: in vivo, 336 h, time 14 day
[30] = Acute toxicity in rat assessed as absolute spleen weight at 2000 mg/kg, po administered for 7 days followed by readministration after 7 days and measured at 14 days (reference value: 0.53 +/- 0.04 g); type: organism-based; conditions: in vivo, 336 h, time 14 day
[31] = Acute toxicity in rat assessed as relative heart weight at 2000 mg/kg, po measured for 7 days (reference value: 0.40 +/- 0.06%); type: organism-based; conditions: in vivo, 168 h, time 7 day
[32] = Acute toxicity in rat assessed as absolute liver weight at 2000 mg/kg, po administered for 7 days followed by readministration after 7 days and measured at 14 days (reference value: 8.43 +/- 0.43 g); type: organism-based; conditions: in vivo, 336 h, time 14 day
Staphylococcus aureus [33] = assay: as §1, with “inflammatory cell infiltration in lung” for “effect on survival rate”, “5” for “7”, “days by light microscopic analysis” for “days”; type: functional, organism-based; conditions: time 5.0 day
[34] = Acute toxicity in rat assessed as tremors at 2000 mg/kg, po measured for 14 days; type: organism-based; conditions: in vivo, 336 h, time 14 day
[35] = Acute toxicity in rat assessed as absolute liver weight at 2000 mg/kg, po measured for 7 days (reference value: 8.43 +/- 0.43 g); type: organism-based; conditions: in vivo, 168 h, time 7 day
Staphylococcus aureus [36] = assay: Bactericidal activity against methicillin-resistant Staphylococcus aureus ATCC 43300 assessed as log reduction in bacterial count count at 6 times MIC incubated at 24 hrs by time-kill assay; type: functional
[37] = Acute toxicity in rat assessed as relative spleen weight at 2000 mg/kg, po measured for 7 days (reference value: 0.27 +/- 0.02%); type: organism-based; conditions: in vivo, 168 h, time 7 day

## C=C[C@]1(C)C[C@@H](OC(=O)CSc2nc(OC(=O)c3ccc(C(C)(C)C)cc3)cs2)[C@]2(C)[C@H](C)CC[C@]3(CCC(=O)[C@H]32)[C@@H](C)[C@@H]1O
[1]
  Activity: Non-toxic
[2]
  Activity: 0.76%
[3]
  Activity: 1.13 g
[4]
  Activity: Toxic
[5]
  LD50 at 336 h: 2000 mg/kg
[6]
  Activity: Non-toxic
Staphylococcus aureus [7]
  Activity: Active
[8]
  Activity: Non-toxic
[9]
  Activity: 0.23%
[10]
  Activity: 0.5 g
[11]
  Activity: Non-toxic
HepG2 [12]
  IC50: > 200 µM
Staphylococcus aureus [13]
  Activity: Dose-dependent-effect
Staphylococcus aureus [14]
  Activity: 0.9 log10CFU
Staphylococcus aureus [15]
  Activity: Active
[16]
  Activity: Non-toxic
[17]
  Activity: 4.34%
[18]
  viability at 24 h, 200 µM: 60%
Staphylococcus aureus [19]
  Activity: inactive
[20]
  Activity: 0.78 g
[21]
  Activity: 1.28 g
Staphylococcus aureus [22]
  MIC: 0.25 µg/mL (≈ 0.382 µM)
Mycoplasma
  MIC: 0.125 µg/mL (≈ 0.191 µM)
[23]
  Activity: Toxic
HepG2 [24]
  viability at 200 µM: 94.3%
Staphylococcus aureus [25]
  PAE: 1.09 h
Staphylococcus aureus [26]
  PAE: 1.85 h
[27]
  Activity: Non-toxic
[28]
  Activity: 0.25%
[29]
  Activity: Non-toxic
[30]
  Activity: 0.53 g
[31]
  Activity: 0.39%
[32]
  Activity: 8.57 g
Staphylococcus aureus [33]
  Activity: Active
[34]
  Activity: Non-toxic
[35]
  Activity: 8.5 g
Staphylococcus aureus [36]
  log(activity): 3.08
[37]
  Activity: 0.28%
